According to PubChem BioAssay AID264 (DTP/NCI, 2004):
Values joined by “and” are separate entries in the source; they are usually repeats but may differ in a detail not shown here. Equal entries are not always repeated. Inconclusive results are not listed.

System: nude mice, LX-1 lung xenograft intrarenal, tumor weight T/C
Test: NCI In Vivo Anticancer Drug Screen. Data for tumor model Human Lung LX-1 Xenograft (intrarenal inoculation) in NU/NU Swiss (nude) mice
Settings: endpoint: mean tumor weight change, higher = larger tumour
Summary of the method: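 Activity was scored by measuring tumors in treated animals and in vehicle controls, then reporting the treated result as a fraction of the control result.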

[1] = dose: 100.0 mg/kg/injection, schedule: Q04DX003 (sc), vehicle: saline with Tween-80
[2] = dose: 200.0 mg/kg/injection, schedule: Q04DX003 (sc), vehicle: saline with Tween-80
[3] = dose: 400.0 mg/kg/injection, schedule: Q04DX003 (sc), vehicle: saline with Tween-80
[4] = dose: 800.0 mg/kg/injection, schedule: Q04DX003 (sc), vehicle: saline with Tween-80
[5] = dose: 150.0 mg/kg/injection, schedule: Q04DX003 (sc), vehicle: saline
[6] = dose: 50.0 mg/kg/injection, schedule: Q01DX010 (sc), vehicle: saline
[7] = dose: 300.0 mg/kg/injection, schedule: Q04DX003 (sc), vehicle: Klucel (hydroxypropylcellulose) (HPC)
[8] = dose: 12.5 mg/kg/injection, schedule: Q01DX010 (sc), vehicle: saline with Tween-80
[9] = dose: 50.0 mg/kg/injection, schedule: Q01DX010 (sc), vehicle: saline with Tween-80

**Q.** For `COC1C(O)CC(OC2CC(Oc3cc4cc5c(c(O)c4c(O)c3C)C(=O)[C@@H](OC3CC(OC4CC(OC6CC(C)(O)C(OC(C)=O)C(C)O6)C(O)C(C)O4)C(O)C(C)O3)[C@H]([C@H](OC)C(=O)[C@@H](O)[C@@H](C)O)C5)OC(C)C2OC(C)=O)OC1C` (stereo partly drawn), which T/C (dose: 0.3 mg/kg/injection, schedule: Q04DX003 (sc), vehicle: Klucel (hydroxypropylcellulose) (HPC)) is on record?
**A.** 87 % of control

**Q.** And the T/C (dose: 0.6 mg/kg/injection, schedule: Q04DX003 (sc), vehicle: Klucel (hydroxypropylcellulose) (HPC))?
**A.** 68 % of control

**Q.** And the T/C (dose: 1.2 mg/kg/injection, schedule: Q04DX003 (sc), vehicle: Klucel (hydroxypropylcellulose) (HPC))?
**A.** 36 % of control

**Q.** What does the source list for `CNc1nc2c(N)ncnc2n1C1OC(CO)C(O)C1O` (stereo not drawn)?
**A.** T/C (dose: 25.0 mg/kg/injection, schedule: Q04DX003 (sc), vehicle: saline): 103 % of control; T/C (dose: 50.0 mg/kg/injection, schedule: Q04DX003 (sc), vehicle: saline): 82 % of control; T/C (dose: 100.0 mg/kg/injection, schedule: Q04DX003 (sc), vehicle: saline): 57 % of control

**Q.** Which T/C [1] does the source give for `Nc1nc2ccc(NCc3ccc(C(=O)NC(CCC(=O)O)C(=O)O)cc3)cc2c(=O)[nH]1` (stereo not drawn) here?
**A.** 94 % of control

**Q.** And the T/C [2]?
**A.** 83 % of control

**Q.** And the T/C [3]?
**A.** 109 % of control

**Q.** And the T/C [4]?
**A.** 63 % of control

**Q.** What does the source list for `c1ccc([C@H]2CN3CCSC3=N2)cc1`?
**A.** T/C (dose: 30.0 mg/kg/injection, schedule: Q04DX003 (sc), vehicle: saline): 103 % of control; T/C (dose: 60.0 mg/kg/injection, schedule: Q04DX003 (sc), vehicle: saline): 121 % of control

**Q.** What does the source list for `Nc1ccn(C2OC(CO)C(O)C2O)c(=O)n1` (stereo not drawn)?
**A.** T/C (dose: 31.25 mg/kg/injection, schedule: Q01DX010 (sc), vehicle: water): 73 % of control and 95 % of control; T/C (dose: 600.0 mg/kg/injection, schedule: Q04DX003 (sc), vehicle: water): 47 % of control; T/C (dose: 819.2 mg/kg/injection, schedule: Q04DX003 (sc), vehicle: water): 46 % of control; T/C (dose: 1024.0 mg/kg/injection, schedule: Q04DX003 (sc), vehicle: water): 61 % of control; T/C (dose: 1200.0 mg/kg/injection, schedule: Q04DX003 (sc), vehicle: water): 34 % of control; T/C (dose: 1280.0 mg/kg/injection, schedule: Q04DX003 (sc), vehicle: water): 23 % of control; T/C (dose: 1600.0 mg/kg/injection, schedule: Q04DX003 (sc), vehicle: water): 20 % of control

**Q.** With `[Cl][Pt+2][Cl].[NH-]C1CCC1.[NH2-]` as the compound, how does the T/C (dose: 12.5 mg/kg/injection, schedule: Q04DX003 (sc), vehicle: suspension in saline) read?
**A.** 57 % of control

**Q.** With `CCOC(OCC)C(=O)OCC(=O)[C@]1(O)Cc2c(O)c3c(c(O)c2[C@@H](OC2CC(N)C(O)C(C)O2)C1)C(=O)c1c(OC)cccc1C3=O` (stereo partly drawn) as the compound, how does the T/C (dose: 2.0 mg/kg/injection, schedule: Q01DX010 (sc), vehicle: water) read?
**A.** 68 % of control

**Q.** And the T/C (dose: 4.0 mg/kg/injection, schedule: Q01DX010 (sc), vehicle: water)?
**A.** 27 % of control

**Q.** Which results are given for `C1CC[N-]CC1.C1CC[N-]CC1.C1CC[N-]CC1.[Cl][Rh]([Cl])[Cl]`?
**A.** T/C (dose: 75.0 mg/kg/injection, schedule: Q04DX003 (sc), vehicle: saline): 78 % of control; T/C [5]: 87 % of control

**Q.** How did the T/C (dose: 1.5 mg/kg/injection, schedule: Q01DX010 (sc), vehicle: saline with Tween-80) turn out when `CC[N+](CC)(CC)CC` was run?
**A.** 88 % of control

**Q.** What about the T/C (dose: 12.0 mg/kg/injection, schedule: Q01DX010 (sc), vehicle: saline with Tween-80) of the same compound?
**A.** 25 % of control and 49 % of control

**Q.** How did the T/C [1] turn out when `O=Cc1ccc(O)c(O)c1` was run?
**A.** 172 % of control

**Q.** What about the T/C [2] of the same compound?
**A.** 100 % of control

**Q.** What about the T/C [3] of the same compound?
**A.** 86 % of control

**Q.** What about the T/C [4] of the same compound?
**A.** 73 % of control

**Q.** How did the T/C [6] turn out when `O=C1C=CN(C2OC(CO)C(O)C2O)C(=O)C1` (stereo not drawn) was run?
**A.** 65 % of control

**Q.** And the T/C (dose: 100.0 mg/kg/injection, schedule: Q01DX010 (sc), vehicle: saline)?
**A.** 21 % of control

**Q.** Which T/C (dose: 0.25 mg/kg/injection, schedule: Q04DX003 (sc), vehicle: Klucel (hydroxypropylcellulose) (HPC)) does the source give for `CC1(O)CC23CC(O)C4(O)C(CC(O)C4(C)C)C(C)(O)C2CCC1C3O` (stereo not drawn) here?
**A.** 78 % of control

**Q.** What about the T/C (dose: 0.5 mg/kg/injection, schedule: Q04DX003 (sc), vehicle: Klucel (hydroxypropylcellulose) (HPC)) of the same compound?
**A.** 77 % of control

**Q.** What about the T/C (dose: 1.0 mg/kg/injection, schedule: Q04DX003 (sc), vehicle: Klucel (hydroxypropylcellulose) (HPC)) of the same compound?
**A.** 58 % of control

**Q.** How did the T/C (dose: 12.0 mg/kg/injection, schedule: Q01DX010 (sc), vehicle: saline) turn out when `NC1(C(=O)O)CCCC1` was run?
**A.** 94 % of control

**Q.** And the T/C (dose: 24.0 mg/kg/injection, schedule: Q01DX010 (sc), vehicle: saline)?
**A.** 66 % of control

**Q.** What about the T/C (dose: 48.0 mg/kg/injection, schedule: Q01DX010 (sc), vehicle: saline) of the same compound?
**A.** 57 % of control

**Q.** What about the T/C [6] of the same compound?
**A.** 32 % of control

**Q.** What about the T/C (dose: 96.0 mg/kg/injection, schedule: Q01DX010 (sc), vehicle: saline) of the same compound?
**A.** 29 % of control

**Q.** With `C[C@]12CCC(=O)C=C1CC[C@@H]1[C@@H]2[C@@H](O)C[C@@]2(C)[C@H]1CC[C@]2(O)C(=O)CO` as the compound, how does the T/C [7] read?
**A.** 40 % of control

**Q.** How did the T/C (dose: 6.25 mg/kg/injection, schedule: Q01DX010 (sc), vehicle: saline with Tween-80) turn out when `O=C1C2CC=CCC2C(=O)N1SC(Cl)(Cl)Cl` (stereo not drawn) was run?
**A.** 102 % of control

**Q.** What about the T/C [8] of the same compound?
**A.** 56 % of control

**Q.** What about the T/C [9] of the same compound?
**A.** 64 % of control and 86 % of control

**Q.** What about the T/C (dose: 100.0 mg/kg/injection, schedule: Q01DX010 (sc), vehicle: saline with Tween-80) of the same compound?
**A.** 76 % of control

**Q.** And the T/C (dose: 200.0 mg/kg/injection, schedule: Q01DX010 (sc), vehicle: saline with Tween-80)?
**A.** 97 % of control

**Q.** With `CN1CCN(Cc2nc3cccc4c3c([n+]2[O-])-c2ccccc2-4)CC1` as the compound, how does the T/C [8] read?
**A.** 83 % of control

**Q.** And the T/C (dose: 25.0 mg/kg/injection, schedule: Q01DX010 (sc), vehicle: saline with Tween-80)?
**A.** 161 % of control

**Q.** What about the T/C [9] of the same compound?
**A.** 180 % of control

**Q.** With `O=C(O)C(CSC(c1ccccc1)(c1ccccc1)c1ccccc1)N=Cc1cccs1` (stereo not drawn) as the compound, how does the T/C (dose: 100.0 mg/kg/injection, schedule: Q04DX003 (sc), vehicle: suspension in saline) read?
**A.** 86 % of control

**Q.** And the T/C (dose: 200.0 mg/kg/injection, schedule: Q04DX003 (sc), vehicle: suspension in saline)?
**A.** 108 % of control

**Q.** What about the T/C (dose: 400.0 mg/kg/injection, schedule: Q04DX003 (sc), vehicle: suspension in saline) of the same compound?
**A.** 55 % of control

**Q.** Which results are given for `CN(C)/N=N/c1nc[nH]c1C(N)=O`?
**A.** T/C (dose: 50.0 mg/kg/injection, schedule: Q01DX010 (sc), vehicle: Klucel (hydroxypropylcellulose) (HPC)): 4 % of control; T/C (dose: 100.0 mg/kg/injection, schedule: Q01DX010 (sc), vehicle: Klucel (hydroxypropylcellulose) (HPC)): -84 % of control; T/C (dose: 200.0 mg/kg/injection, schedule: Q01DX010 (sc), vehicle: Klucel (hydroxypropylcellulose) (HPC)): -100 % of control

**Q.** With `COC1C(/C=C/C(C)=O)OC2OC(C)(C)OC21` (stereo not drawn) as the compound, how does the T/C (dose: 75.0 mg/kg/injection, schedule: Q04DX003 (sc), vehicle: suspension in saline) read?
**A.** 52 % of control

**Q.** And the T/C (dose: 150.0 mg/kg/injection, schedule: Q04DX003 (sc), vehicle: suspension in saline)?
**A.** 158 % of control

**Q.** And the T/C (dose: 300.0 mg/kg/injection, schedule: Q04DX003 (sc), vehicle: suspension in saline)?
**A.** 123 % of control

**Q.** With `COc1cc(OC)c(OC)cc1/C=C\c1ccnc2ccccc12` as the compound, how does the T/C [7] read?
**A.** 62 % of control

**Q.** And the T/C (dose: 600.0 mg/kg/injection, schedule: Q04DX003 (sc), vehicle: Klucel (hydroxypropylcellulose) (HPC))?
**A.** 82 % of control

**Q.** What about the T/C (dose: 1200.0 mg/kg/injection, schedule: Q04DX003 (sc), vehicle: Klucel (hydroxypropylcellulose) (HPC)) of the same compound?
**A.** 90 % of control

**Q.** And the T/C (dose: 2400.0 mg/kg/injection, schedule: Q04DX003 (sc), vehicle: Klucel (hydroxypropylcellulose) (HPC))?
**A.** 81 % of control

**Q.** Which results are given for `COc1ccc(S(=O)(=O)N=N/C=C2\C=CC=CN2O)cc1OC`?
**A.** T/C (dose: 75.0 mg/kg/injection, schedule: Q04DX003 (sc), vehicle: saline with Tween-80): 111 % of control; T/C (dose: 150.0 mg/kg/injection, schedule: Q04DX003 (sc), vehicle: saline with Tween-80): 124 % of control; T/C (dose: 600.0 mg/kg/injection, schedule: Q04DX003 (sc), vehicle: saline with Tween-80): 11 % of control

**Q.** For `[Cl][Sn]([c]1ccccc1)[c]1ccccc1`, which T/C [5] is on record?
**A.** 92 % of control

**Q.** And the T/C (dose: 600.0 mg/kg/injection, schedule: Q04DX003 (sc), vehicle: saline)?
**A.** 84 % of control

**Q.** What does the source list for `CNC(=O)OCc1c(COC(=O)NC)c(-c2ccc(Cl)c(Cl)c2)n2c1Cc1ccccc1C2`?
**A.** T/C (dose: 150.0 mg/kg/injection, schedule: Q04DX003 (sc), vehicle: distilled water + Tween-80): 97 % of control; T/C (dose: 300.0 mg/kg/injection, schedule: Q04DX003 (sc), vehicle: distilled water + Tween-80): 71 % of control; T/C (dose: 600.0 mg/kg/injection, schedule: Q04DX003 (sc), vehicle: distilled water + Tween-80): 58 % of control; T/C (dose: 1200.0 mg/kg/injection, schedule: Q04DX003 (sc), vehicle: distilled water + Tween-80): 54 % of control

**Q.** Which results are given for `OC(CCl)CN1CC[N+]2(CC1)CC[N+]1(CCN(CC(O)CCl)CC1)CC2` (stereo not drawn)?
**A.** T/C (dose: 128.0 mg/kg/injection, schedule: Q01DX010 (sc), vehicle: water): 78 % of control; T/C (dose: 256.0 mg/kg/injection, schedule: Q01DX010 (sc), vehicle: water): 59 % of control
